Read-outs that look alike come from different tables or passages of the source.
How the values were obtained:
[1] = molecular target: HIV strain MDR (mutations L100I, K103N, Y181C, E138G, V1791, L2214F, V278V/I and A327A/V in HIV reverse transcriptase); assay: microbe, parasite or virus in culture; type: cell-based, HIV-1; conditions: MT4 LTR-EGFP cells, measured three days after infection; for MDR (pEC50): MDR strain; for EC50: Human immunodeficiency virus 1, 72 h, read-out: MDR (pEC50), MDR strain (converted)
Method: (§1) The antiviral activity of the compound of the present invention has been evaluated in the presence of wild type HIV and HIV mutants bearing mutations at the reverse transcriptase gene. The activity of the compounds is evaluated using a cellular assay which was performed according to the following procedure.
(§2) The human T-cell line MT4 is engineered with Green Fluorescent Protein (GFP) and an HIV-specific promoter, HIV-1 long terminal repeat (LTR). This cell line is designated MT4 LTR-EGFP, and can be used for the in vitro evaluation of anti-HIV activity of investigational compounds. In HIV-1 infected cells, the Tat protein is produced which upregulates the LTR promotor and finally leads to stimulation of the GFP reporter production, allowing to measure ongoing HIV-infection fluorometrically.
(§3) Effective concentration values such as 50% effective concentration (EC50) can be determined and are usually expressed in μM. An EC50 value is defined as the concentration of test compound that reduces the fluorescence of HIV-infected cells by 50%. The 50% cytotoxic concentration (CC50 in μM) is defined as the concentration of test compound that reduces fluorescence of the mock-infected cells by 50%. The ratio of CC50 to EC50 is defined as the selectivity index (SI) and is an indication of the selectivity of the anti-HIV activity of the inhibitor. The ultimate monitoring of HIV-1 infection and cytotoxicity is done using a scanning microscope. Image analysis allows very sensitive detection of viral infection. Measurements are done before cell necrosis, which usually takes place about five days after infection, in particular measurements are performed three days after infection.
(§4) The columns IIIB, L100I, etc. in the table list the pEC50 values against various strains IIIB, L100I, etc.
“MDR” refers to a strain that contains mutations L100I, K103N, Y181C, E138G, V1791, L2214F, V278V/I and A327A/V in HIV reverse transcriptase.

[2] = tested on: HIV mutant strain K103N + Y181C; assay: microbe, parasite or virus in culture; type: cell-based, HIV-1; conditions: MT4 LTR-EGFP cells, measured three days after infection; for K103N + Y181C (pEC50): strain K103N + Y181C; for EC50: Human immunodeficiency virus 1, 72 h, read-out: K103N + Y181C (pEC50), strain K103N + Y181C (converted)
Method: as §1, §2, §3, §4

[3] = tested on: HIV mutant strain L100I + K103N; assay: microbe, parasite or virus in culture; type: cell-based, HIV-1; conditions: MT4 LTR-EGFP cells, measured three days after infection; for L100I + K103N (pEC50): strain L100I + K103N; for EC50: Human immunodeficiency virus 1, 72 h, read-out: L100I + K103N (pEC50), strain L100I + K103N (converted)
Method: as §1, §2, §3, §4

[4] = tested on: HIV mutant strain Y181C; assay: microbe, parasite or virus in culture; type: cell-based, HIV-1; conditions: MT4 LTR-EGFP cells, measured three days after infection; for Y181C (pEC50): strain Y181C; for EC50: Human immunodeficiency virus 1, 72 h, read-out: Y181C (pEC50), strain Y181C (converted)
Method: as §1, §2, §3, §4

[5] = tested on: wild type HIV strain IIIB; assay: Cellular anti-HIV assay in MT4 LTR-EGFP cells (GFP fluorescence), strain IIIB; cytotoxicity in mock-infected MT4 CMV-EGFP cells for the selectivity index; type: cell-based, HIV-1; conditions: for EC50: read-out: IIIB (pEC50) (converted)
Method: as §1, §2
Analogously, MT4 cells are engineered with GFP and the constitutional cytomegalovirus (CMV) promotor. This cell line is designated MT4 CMV-EGFP, and can be used for the in vitro evaluation of cytotoxicity of investigational compounds. In this cell line, GFP levels are comparably to those of infected MT4 LTR-EGFP cells. Cytotoxic investigational compounds reduce GFP levels of mock-infected MT4 CMV-EGFP cells.
as §3, §4
Strain IIIB is wild type HIV strain.

[6] = wild type HIV strain IIIB, MT4 LTR-EGFP cells, measured three days after infection
[7] = Human immunodeficiency virus 1, IIIB, 72 h, wild type HIV strain IIIB, MT4 LTR-EGFP cells, measured three days after infection

Compound	MDR (pEC50) [1]	K103N + Y181C (pEC50) [2]	L100I + K103N (pEC50) [3]	Y181C (pEC50) [4]	IIIB (pEC50) [5, 6]	EC50 [1] [nM]	EC50 [2] [nM]	EC50 [3] [nM]	EC50 [4] [nM]	EC50 [5, 7] [nM]	IIIB (pEC50) [5]	EC50 ([5]; Human immunodeficiency virus 1, 72 h, wild type HIV strain IIIB, MT4 LTR-EGFP cells, measured three days after infection) [nM]	melting point [°C]
C=CC(O)c1cnc(Nc2ccc(C#N)cc2)nc1Nc1c(C)cc(/C=C/C#N)cc1C (centres unmarked) [Compound 12]	6.37	8.38	8.86	8.44	8.91	–	–	–	–	–	–	–	–
Cc1cnc(C(O)c2cnc(Nc3ccc(C#N)cc3)nc2Nc2c(C)cc(/C=C/C#N)cc2C)s1 (centres unmarked) [Compound 7]	–	–	–	–	–	1620	47.9	14.8	21.4	11.5	–	–	–
Cc1cc(/C=C/C#N)cc(C)c1Nc1nc(Nc2ccc(C#N)cc2)ncc1C(O)c1cccnc1 (centres unmarked) [Compound 4]	–	–	–	–	–	355	5.75	3.47	5.37	1.78	–	–	–
Cc1csc(C(O)c2cnc(Nc3ccc(C#N)cc3)nc2Nc2c(C)cc(/C=C/C#N)cc2C)n1 (centres unmarked) [Compound 8]	–	–	–	–	–	209	9.55	4.27	14.5	3.89	–	–	–
Cc1cc(/C=C/C#N)cc(C)c1Nc1nc(Nc2ccc(C#N)cc2)ncc1C(O)c1scnc1Br (centres unmarked) [Compound 15]	–	–	–	–	–	468	18.2	7.76	17.8	6.76	–	–	–
Cc1cc(/C=C/C#N)cc(C)c1Nc1nc(Nc2ccc(C#N)cc2)ncc1C(O)C1CCCC1 (centres unmarked) [Compound 9]	–	–	–	–	–	6610	759	158	245	17	–	–	–
Cc1cc(/C=C/C#N)cc(C)c1Nc1nc(Nc2ccc(C#N)cc2)ncc1C(O)c1nc2ccccc2s1 (centres unmarked) [Compound 14]	–	–	–	–	–	6310	100	70.8	75.9	12.6	–	–	–
Cc1cc(/C=C/C#N)cc(C)c1Nc1nc(Nc2ccc(C#N)cc2)ncc1C(O)(c1nccs1)c1nccs1 [Compound 21]	–	–	–	–	–	3310	85.1	23.4	56.2	18.2	–	–	–
COc1ccccc1C(O)c1cnc(Nc2ccc(C#N)cc2)nc1Nc1c(C)cc(/C=C/C#N)cc1C (centres unmarked) [Compound 5]	–	–	–	–	–	646	18.6	8.51	8.51	4.07	–	–	–
Cc1cc(/C=C/C#N)cc(C)c1Nc1nc(Nc2ccc(C#N)cc2)ncc1C(O)c1cncs1 (centres unmarked) [Compound 10]	–	–	–	–	–	145	4.07	2.63	3.8	3.02	–	–	–
Cc1csc(CC(O)c2cnc(Nc3ccc(C#N)cc3)nc2Nc2c(C)cc(/C=C/C#N)cc2C)n1 (centres unmarked) [Compound 6]	–	–	–	–	–	2240	95.5	18.6	24.5	3.72	–	–	–
C=CC(O)(c1nccs1)c1cnc(Nc2ccc(C#N)cc2)nc1Nc1c(C)cc(/C=C/C#N)cc1C (centres unmarked) [Compound 27]	6.27	7.54	7.84	7.70	–	–	–	–	–	–	7.70	–	–
Cc1cc(/C=C/C#N)cc(C)c1Nc1nc(Nc2ccc(C#N)cc2)ncc1C(O)c1nccn1C (centres unmarked) [Compound 11]	–	–	–	–	–	832	7.24	3.72	6.03	2.57	–	–	–
Cc1cc(/C=C/C#N)cc(C)c1Nc1nc(Nc2ccc(C#N)cc2)ncc1C(O)c1ccccn1 (centres unmarked) [Compound 2]	–	–	–	–	–	813	3.24	3.47	8.51	–	–	3.47	244
Cc1cc(/C=C/C#N)cc(C)c1Nc1nc(Nc2ccc(C#N)cc2)ncc1C(C)(O)c1nccs1 (centres unmarked) [Compound 25]	6.40	7.62	7.85	7.74	7.75	–	–	–	–	–	–	–	–
Cc1cc(/C=C/C#N)cc(C)c1Nc1nc(Nc2ccc(C#N)cc2)ncc1C(O)C#Cc1cncn1C (centres unmarked) [Compound 13]	–	–	–	–	–	537	38.9	63.1	19.5	3.63	–	–	–
CCC(O)(c1nccs1)c1cnc(Nc2ccc(C#N)cc2)nc1Nc1c(C)cc(/C=C/C#N)cc1C (centres unmarked) [Compound 22]	5.66	7.03	7.51	7.21	7.75	–	–	–	–	–	–	–	–
Cc1cc(/C=C/C#N)cc(C)c1Nc1nc(Nc2ccc(C#N)cc2)ncc1C(O)c1csc2nc(Cl)cn12 (centres unmarked) [Compound 18]	–	–	–	–	–	2190	107	30.9	79.4	18.2	–	–	–
Cc1cc(/C=C/C#N)cc(C)c1Nc1nc(Nc2ccc(C#N)cc2)ncc1C(O)(c1nccs1)C(C)C (centres unmarked) [Compound 26]	5.12	6.24	6.33	6.66	7.00	–	–	–	–	–	–	–	–
Cc1cc(/C=C/C#N)cc(C)c1Nc1nc(Nc2ccc(C#N)cc2)ncc1C(O)c1cn2ccnc2s1 (centres unmarked) [Compound 16]	–	–	–	–	–	7240	95.5	63.1	89.1	25.1	–	–	–
